Measurements reported in patent publication US20060099170A1, “Compositions for inducing increased levels of beta-chemokines and methods of use therefor” (priority 2002, published 2006).
Where two headings read alike, the source gives them in different places.

Experiments:
CD8 lymphocytes [1] = experiment: β-chemokine levels (ELISA) in cultures of purified activated CD8 lymphocytes; assay type: cell-based, human
CD8 lymphocytes [2] = assay type: cell-based, human
Experimental: (§1) Cell proliferation was measured by the trypan blue staining viability test, [^3H]thymidine incorporation in DNA, and the 3-(4,5-dimethylthiazol-2-yl)-2,5-diphenyl tetrazolium bromide (MTT) assay (Roche).
The impact of cell cycle arrest in β-chemokine levels was evaluated by measuring chemokine levels in supernatants of cell cultures containing compounds known to cause cell cycle arrest. Levels of the β-chemokines RANTES, MIP-1α, and MIP-1β were measured by using commercial ELISA kits (R &D Systems). Cell cycle arrest in G1 was induced by culturing of the cells in the presence of aphidicolin (APH), sodium butyrate (SB), hydroxyurea (HU), roscovitine (RC), or olomoucine (OL). Arrest in late S phase was induced by culture of cells in the presence of resveratrol. G2 cycle arrest was induced by the compounds nocodazole and Colcemid. All compounds were purchased from Sigma except RC and OL, which were from Calbiochem. Arrest of cell cycle progression in the presence of G1 cytostatic agents was measured by propidium iodide staining followed by fluorescence-activated cell sorter (FACS) analysis (Noguchi, et al., 1991). This method may be used to test any compound for ability to arrest the G1 phase in a cell cycle.
In the experiments described thus far, total PBMCs had been used. […] Negatively selected CD8^+ lymphocytes were activated by anti-CD3 plus IL-2 treatment for 3 days. Activated cells were cultured in the presence of IL-2 and HU (100 and 200 μM) for 24 or 48 h, time points at which cell proliferation and supernatant chemokine levels were assayed. Cell proliferation was determined by trypan blue staining, [^3H]thymidine incorporation in DNA, and percentage of cells in S phase as assessed by propidium iodide staining (FIG. 4). […] Similarly, the percentage of cells in S phase increased in the absence of HU, whereas it decreased in its presence. […]
To investigate whether increased levels of supernatant chemokines upon cell cycle arrest are cell cycle phase-specific, the effect of G2 arrest in chemokine production next was evaluated. […]

activated PBMCs [3] = experiment: β-chemokine levels (ELISA) in supernatants of activated PBMCs cultured with cell cycle arresting compounds; assay type: cell-based, human
activated PBMCs [4] = experiment: Cell number / proliferation of activated PBMCs (trypan blue); assay type: cell-based, human
Experimental: as §1
To this end, β-chemokine levels (production or availability) by activated PBMCs cultured in the presence of HU was investigated. HU is a G1 cytostatic drug that, by depleting intracellular nucleotide pools, arrests cell cycle progression in late G1 (Lori, et al., 1994). […] In the representative experiment depicted in FIG. 2, day 8 chemokine levels in cultures containing 100 μM HU were increased 3.4-fold for RANTES, 5.4-fold for MIP-1α, and 4-fold for MIP-1β compared with the untreated control. Because HU inhibits lymphocyte proliferation, chemokine values also were expressed as chemokine amount per viable cell. As expected, cell numbers were lower in the presence of the drug (FIG. 2C).
The agents evaluated were SB, APH, RC, and OL. SB and APH arrest the cell cycle in early and late G1, respectively (Korin, et al., 1998; Koostra, et al., 2000). RC and OL are purine-derivative drugs that arrest cell cycle progression in late G1 through inhibition of cyclin-dependent kinases (CDKs) (Gray, et al., 1999). […] The number of viable cells and chemokine levels are depicted. […]

HIV-1 BaL = experiment: HIV-1-suppressive activity of supernatants from HU-treated PBMCs, infected PBMCs, p24; assay type: cell-based; conditions: 100 μM HU in fresh medium, day 7 after infection
Experimental: The antiviral activity of the supernatants collected from cultures of PBMCs that had been exposed to 100 μM HU for 7 days [supernatants referred to as conditioned medium (CM)] was evaluated in PBMCs infected with HIV-1 BaL and HIV-1 IIIb. Briefly, PHA-activated PBMCs were infected with each virus at 100 tissue culture 50% infective dose units (TCID50)/10^6 PBMCs or 10 TCID50/10^6 PBMCs for 2 h at 37° C. Infected cells were cultured in IL-2 medium alone, IL-2 medium with 100 μM HU, IL-2 medium containing 50% supernatant from HU-treated PBMCs (CM/HU), or IL-2 medium containing 50% supernatant from control-treated PBMCs (CM/control). On day 3 after infection, culture medium was replaced with fresh medium of the same kind as on day 1. Viral growth (measured by p24 levels in the supernatant) and cell viability (assayed by MTT) were determined on day 7 after infection.
These culture supernatants were referred to as CM/HU. Culture supernatants from activated PBMCs cultured under the same conditions in the absence of HU (CM/control) also were harvested.
The antiviral activity of the CM was evaluated in the infection of PBMCs with HIV-1 BaL (a prototype R5-using virus) and HIV-1 IIIb (a prototype X4-using virus). […] Virus replication and cell viability were measured on day 7 after infection.

HIV = experiment: Cyclic therapy trial with HU during off-ARV periods: viral load; assay type: in vivo; conditions: for Viral load: 7 days on ARV's alternated by 14 days off ARV's but on HU
Source text: (§2) The protocol used in the present invention expands on the NIH's concept of Cyclic Therapy. Cyclic therapy is a strategy in which patients can maintain viral suppression despite alternating between 7 days of taking ARV medications and 7 days of taking no medications. Compared to the NIH trail of short cycle of 7 days intermittently off therapy, in our trial, the G1 cycle agent HU is being used to maintain viral suppression during an extended off medication cycle of 14-28 days. The off period is followed by 7 days of combination antiretroviral therapy. This has allowed study participants to be on ⅔ fewer medications but still maintain viral control and immune reconstitution.
(§3) Four patients are enrolled in the trial. Patients in this study have benefited from decreased drug related toxicities, relief from difficult financial sacrifices to stay on ARV's, and improved adherence to medications.

CD4 = experiment: Cyclic therapy trial with HU during off-ARV periods: absolute CD4 count; assay type: in vivo, human; conditions: 7 days on ARV's alternated by 14 days off ARV's but on HU
Source text: as §2, §3

HIV-1 ADA = experiment: Antiviral activity of TAK-779 with or without RAPA in PBMCs (p24); assay type: cell-based
Experimental: For infection of PBMCs, fresh donor PBMCs were cultured for 7 days in medium containing IL-2. On day 7, cells were exposed to the virus for 3 h. Nonadsorbed virus was removed by washing cells with PBS three times. Infected cells were cultured in IL-2 medium. Infection of MDMs was carried out as described before (Pemo, et al. 1993). Unless otherwise indicated, PBMCs were infected by using a moi of 0.001, and monocyte-derived macrophages (MDMs) were infected by using a moi of 0.002. Virus growth was monitored in culture supernatants by measuring p24 antigen levels by ELISA (NEN) or by measuring viral RT activity in an RT assay (Willey, et al., 1988).
To test this hypothesis, donor PBMCs were cultured in IL-2 medium in the absence or presence of RAPA (1, 10, and 100 nM). […] Infected cells were cultured in the presence of RAPA (same concentration as during pretreatment) plus 0.1 nM TAK-779. Virus production was determined 7 days after infection (FIG. 11).

[5] = 100 μM HU, day 8, levels as ng/ml
[6] = at G1 cytostatic concentrations of the drug, PHA-activated PBMCs

## Oc1ccc(C=Cc2cc(O)cc(O)c2)cc1 [resveratrol]
CD8 lymphocytes [1]; 10 μM resveratrol, data not shown
  chemokine levels on cell cycle arrest in late S: lower than the untreated control

## COC(=O)Nc1nc2ccc(C(=O)c3cccs3)cc2[nH]1 [nocodazole]
CD8 lymphocytes [1]; 0.01 μg/ml nocodazole, 48 h, G2 arrest
  chemokine content: lower than in the untreated controls
CD8 lymphocytes [2]; 0.01 μg/ml nocodazole, 48 h
  cell cycle distribution: accumulation of cells in G2

## CN[C@H]1CCc2cc(OC)c(OC)c(OC)c2-c2ccc(OC)c(=O)cc21 [Colcemid]
CD8 lymphocytes [1]; same as nocodazole (lower than untreated), data not shown
  chemokine content on G2 cycle arrest: same results

## NC(=O)NO [HU, hydroxyurea]
Activated PBMCs [3]
  chemokine levels: increased chemokine levels
Activated PBMCs [3]; [5]
  MIP-1α level increase compared with untreated control: 5.4 fold
  MIP-1β level increase compared with untreated control: 4 fold
  RANTES level increase compared with untreated control: 3.4 fold
Activated PBMCs [3]; 100 μM HU, per viable cell
  MIP-1α level increase, ng per 10^6 cells: 25.4 fold
  MIP-1β level increase, ng per 10^6 cells: 18.4 fold
  RANTES level increase, ng per 10^6 cells: 16.2 fold
Activated PBMCs [3]; PHA-activated PBMCs, HU for 14 days, dose-dependent
  concentrations (ng/ml) of RANTES, MIP-1α, and MIP-1β in the culture supernatants: increased concentrations
Activated PBMCs [4]; PHA-activated PBMCs in presence of HU, trypan blue
  cell numbers: lower
CD8 lymphocytes [1]; 100 μM HU, 48 h
  MIP-1α level increase: 3.7 fold
  MIP-1β level increase: 4.7 fold
  RANTES level increase: 1.9 fold
CD8 lymphocytes [1]; 200 μM HU, 48 h, compared with 100 μM
  chemokine production levels: Slightly lower increases
CD8 lymphocytes [2]; HU 100 and 200 μM, propidium iodide
  percentage of cells in S phase: decreased
CD8 lymphocytes [2]; HU 100 and 200 μM, doubled in absence of HU
  cell number and thymidine incorporation between 24 and 48 h: remained constant or decreased
HIV-1 BaL
  inhibition of HIV-1 BaL replication: < 10%
HIV-1 BaL; Human immunodeficiency virus 1, BAL, PBMC, 168 h, read-out: inhibition of HIV-1 BaL replication
  inhibition at 100 µM: 8%
HIV; Patient 1, 6 wks
  Viral load: 72 Copies/ml
HIV; Patient 1, 9 wks
  Viral load: 158 Copies/ml
HIV; Patient 1, 12 wks
  Viral load: 114 Copies/ml
HIV; Patient 1, 18 wks
  Viral load: 973 Copies/ml
HIV; Patient 1, column head 3 wks off continuous therapy
  Viral load: 0 Copies/ml
HIV; Patient 1, column head 15 wks
  Viral load: 322 Copies/ml
HIV; Patient 1, column head 21 wks
  Viral load: 0 Copies/ml
HIV; Patient 2, 3 wks
  Viral load: 0 c/ml
HIV; Patient 2, 6 wks
  Viral load: 0 c/ml
HIV; Patient 2, 9 wks
  Viral load: 0 c/ml
HIV; Patient 2, 12 wks
  Viral load: 0 c/ml
HIV; Patient 2, 18 wks
  Viral load: 0 c/ml
HIV; Patient 2, column head 15 wks
  Viral load: 0 c/ml
HIV; Patient 3, 3 wks
  Viral load: 0 c/ml
HIV; Patient 3, 6 wks
  Viral load: 0 c/ml
HIV; Patient 3, 9 wks
  Viral load: 0 c/ml
HIV; Patient 3, 12 wks
  Viral load: 0 c/ml
HIV; all three patients, at least 3 cycles of treatment
  viral suppression despite discontinuation of primary anti-retroviral drugs: persistent viral suppression
CD4; Patient 1, 3 wks
  Absolute CD4 count: 377
CD4; Patient 1, column head 21 wks
  Absolute CD4 count: 518
CD4; Patient 2, 3 wks
  Absolute CD4 count: 1256
CD4; Patient 2, 18 wks
  Absolute CD4 count: 973
CD4; Patient 3, 3 wks
  Absolute CD4 count: 934
CD4; Patient 3, 12 wks
  Absolute CD4 count: 995

## C[C@@]1(CO)[C@H](O)CC[C@@]2(C)[C@H]1CC[C@H]1C[C@@H]3C[C@@]12CC[C@]3(O)CO [APH, aphidicolin]
Activated PBMCs [3]; 0.5 μM APH, PHA-activated PBMCs
  chemokine values: Increased chemokine values
Activated PBMCs [4]; 0.5 μM APH
  cell proliferation: reduced cell proliferation

## CCCC(=O)[O-].[Na+] [SB, sodium butyrate]
Activated PBMCs [3]; [6]
  chemokine levels: increased chemokine levels

## CC[C@H](CO)Nc1nc(NCc2ccccc2)c2ncn(C(C)C)c2n1 [RC, roscovitine]
Activated PBMCs [3]; [6]
  chemokine levels: increased chemokine levels

## Cc1ccc(-c2ccc3c(c2)C=C(C(=O)Nc2ccc(C[N+](C)(C)C4CCOCC4)cc2)CCC3)cc1.[Cl-] [TAK-779]
HIV-1 ADA; 0.1 nM TAK-779, absence of RAPA, day 7
  inhibition of virus replication: 21%
HIV-1 ADA; 0.1 nM TAK-779 in presence of 1 nM RAPA
  virus inhibition due to TAK-779: 74.5%
HIV-1 ADA; 0.1 nM TAK-779 in presence of 10 nM RAPA
  virus inhibition due to TAK-779: 89%
HIV-1 ADA; 0.1 nM TAK-779 in presence of 100 nM RAPA
  virus inhibition due to TAK-779: 96%
